Measured values reported in publication PMC7717600, “Novel [(N-alkyl-3-indolylmethylene)hydrazono]oxindoles arrest cell cycle and induce cell apoptosis by inhibiting CDK2 and Bcl-2: synthesis, biological evaluation and in silico studies” (Journal of Enzyme Inhibition and Medicinal Chemistry, 2020).

Columns and labels:
[1] = test system: MALME-3M; details: 10 μM
[2] = test system: A-549; assay: SRB anti-proliferative assay; format: cell-based; details: Homo sapiens, A549; A-549, SRB, mean ± SE of 3
[3] = test system: SN12C; details: 10 μM
[4] = test system: ACHN; details: 10 μM
[5] = test system: TK-10; details: TK-10, 10 μM
[6] = test system: SW-620; details: SW-620, 10 μM
[7] = test system: SK-MEL-5; details: SK-MEL-5, 10 μM
[8] = test system: MDA-MB-231/ATCC; details: MDA-MB-231, 10 μM
[9] = test system: OVCAR-5; details: OVCAR-5, 10 μM
[10] = test system: SF-268; details: SF-268, 10 μM
[11] = test system: OVCAR-8; details: OVCAR-8, 10 μM
[12] = test system: BT-549; details: BT-549, 10 μM
[13] = test system: UO-31; details: UO-31, 10 μM
[14] = test system: MDA-MB-231; assay: SRB anti-proliferative assay; format: cell-based; details: Homo sapiens; MDA-MB-231, SRB, mean ± SE of 3
[15] = test system: HCT-116; assay: SRB anti-proliferative assay; format: cell-based; details: Homo sapiens; HCT-116, SRB, mean ± SE of 3
[16] = test system: LOX IMVI; assay: NCI SRB screening; format: cell-based, human; details: 10 μM
[17] = test system: PC-3; assay: NCI SRB screening; format: cell-based, human; details: PC-3, 10 μM
[18] = test system: MOLT-4; details: MOLT-4, 10 μM
[19] = test system: OVCAR-3; details: OVCAR-3, 10 μM
[20] = test system: MDA-MB-468; details: MDA-MB-468, 10 μM
[21] = test system: NCI-H522; details: NCI-H522, 10 μM
[22] = test system: SF-539; details: SF-539, 10 μM
[23] = test system: NCI-H460; assay: NCI SRB screening; format: cell-based, human; details: NCI-H460, 10 μM
[24] = test system: HS 578T; details: 10 μM
[25] = test system: A549/ATCC; details: 10 μM
[26] = test system: HOP-92; details: HOP-92, 10 μM
[27] = test system: NCI-H23; details: NCI-H23, 10 μM
[28] = test system: IGROV1; details: IGROV1, 10 μM
[29] = test system: HCT-116; details: HCT-116, 10 μM
[30] = test system: SK-OV-3; details: SK-OV-3, 10 μM
[31] = test system: RXF 393; details: RXF 393, 10 μM
[32] = test system: NCI-H226; details: NCI-H226, 10 μM
[33] = test system: KM12; details: KM12, 10 μM
[34] = test system: HL-60(TB); details: HL-60(TB), 10 μM
[35] = test system: UACC-257; details: UACC-257, 10 μM
[36] = test system: K-562; details: K-562, 10 μM
[37] = test system: NCI/ADR-RES; details: 10 μM
[38] = test system: SNB-75; details: SNB-75, 10 μM
[39] = test system: EKVX; details: 10 μM
[40] = test system: HCT-15; details: HCT-15, 10 μM
[41] = test system: NCI-H322M; assay: NCI SRB screening; details: 10 μM
[42] = test system: CCRF-CEM; details: 10 μM
[43] = test system: SK-MEL-28; details: SK-MEL-28, 10 μM

For `C=CCn1cc(C=NN=C2C(=O)Nc3ccc(Cl)cc32)c2ccccc21` [Compound 10d], the GI % [1] was “– (Only GI % higher than 10% are shown)”, the IC50 [2] was 53.1 ± 4.13 µM and the GI % [3] was “– (Only GI % higher than 10% are shown)”. The GI % [4] was “– (Only GI % higher than 10% are shown)”, the GI % [5] was “– (Only GI % higher than 10% are shown)” and the GI % [6] was “– (Only GI % higher than 10% are shown)”. The GI % [7] was “– (Only GI % higher than 10% are shown)”, the GI % [8] was “– (Only GI % higher than 10% are shown)” and the GI % [9] was “– (Only GI % higher than 10% are shown)”. The GI % [10] was “– (Only GI % higher than 10% are shown)”, the GI % [11] was “– (Only GI % higher than 10% are shown)” and the GI % [12] was “– (Only GI % higher than 10% are shown)”. The GI % [13] was 23%, the IC50 [14] was 42.9 ± 2.51 µM and the IC50 [15] was 28.5 ± 1.59 µM. The GI % [16] was “– (Only GI % higher than 10% are shown)”, the GI % [17] was “– (Only GI % higher than 10% are shown)” and the GI % [18] was 14%. The GI % [19] was “– (Only GI % higher than 10% are shown)”, the GI % [20] was 36% and the GI % [21] was 17%. The GI % [22] was “– (Only GI % higher than 10% are shown)”, the GI % [23] was “– (Only GI % higher than 10% are shown)” and the GI % [24] was “– (Only GI % higher than 10% are shown)”. For the same molecule, the GI % [25] was “– (Only GI % higher than 10% are shown)”, the GI % [26] was “– (Only GI % higher than 10% are shown)” and the GI % [27] was “– (Only GI % higher than 10% are shown)”. For the same molecule, the GI % [28] was 23%, the GI % [29] was “– (Only GI % higher than 10% are shown)” and the GI % [30] was “– (Only GI % higher than 10% are shown)”. For the same molecule, the GI % [31] was “– (Only GI % higher than 10% are shown)”, the GI % [32] was 41% and the GI % [33] was “– (Only GI % higher than 10% are shown)”. For the same molecule, the GI % [34] was “– (Only GI % higher than 10% are shown)”, the GI % [35] was “– (Only GI % higher than 10% are shown)” and the GI % [36] was “– (Only GI % higher than 10% are shown)”. The GI % [37] was “– (Only GI % higher than 10% are shown)”, the GI % [38] was “– (Only GI % higher than 10% are shown)” and the GI % [39] was 33%. The GI % [40] was 10%, the GI % [41] was “– (Only GI % higher than 10% are shown)” and the GI % [42] was “– (Only GI % higher than 10% are shown)”. The GI % [43] was “– (Only GI % higher than 10% are shown)”.
For `C=CCn1cc(C=NN=C2C(=O)Nc3ccccc32)c2ccccc21` [Compound 10a], the GI % [1] was 26%, the IC50 [2] was 17.3 ± 1.19 µM and the GI % [3] was “– (Only GI % higher than 10% are shown)”. For the same molecule, the GI % [4] was “– (Only GI % higher than 10% are shown)”, the GI % [5] was “– (Only GI % higher than 10% are shown)” and the GI % [6] was “– (Only GI % higher than 10% are shown)”. For the same molecule, the GI % [7] was “– (Only GI % higher than 10% are shown)”, the GI % [8] was “– (Only GI % higher than 10% are shown)” and the GI % [9] was “– (Only GI % higher than 10% are shown)”. For the same molecule, the GI % [10] was “– (Only GI % higher than 10% are shown)”, the GI % [11] was 15% and the GI % [12] was “– (Only GI % higher than 10% are shown)”. It also gave a GI % [13] of 33%, an IC50 [14] of 11.7 ± 1.04 µM and an IC50 [15] of 7.7 ± 0.68 µM. The GI % [16] was “– (Only GI % higher than 10% are shown)”, the GI % [17] was 22% and the GI % [18] was 35%. For the same molecule, the GI % [19] was 21%, the GI % [20] was 20% and the GI % [21] was 31%. For the same molecule, the GI % [22] was “– (Only GI % higher than 10% are shown)”, the GI % [23] was “– (Only GI % higher than 10% are shown)” and the GI % [24] was “– (Only GI % higher than 10% are shown)”. The GI % [25] was “– (Only GI % higher than 10% are shown)”, the GI % [26] was “– (Only GI % higher than 10% are shown)” and the GI % [27] was 12%. The GI % [28] was 28%, the GI % [29] was 24% and the GI % [30] was “– (Only GI % higher than 10% are shown)”. For the same molecule, the GI % [31] was 11%, the GI % [32] was 13% and the GI % [33] was “– (Only GI % higher than 10% are shown)”. For the same molecule, the GI % [34] was 22%, the GI % [35] was “– (Only GI % higher than 10% are shown)” and the GI % [36] was 30%. For the same molecule, the GI % [37] was “– (Only GI % higher than 10% are shown)”, the GI % [38] was 18% and the GI % [39] was “– (Only GI % higher than 10% are shown)”. For the same molecule, the GI % [40] was 15%, the GI % [41] was “– (Only GI % higher than 10% are shown)” and the GI % [42] was “– (Only GI % higher than 10% are shown)”. The GI % [43] was “– (Only GI % higher than 10% are shown)”.
